We go through one compound from patent US6596712B2, “Treatment of carcinomas using squalamine in combination with other anti-cancer agents or modalities” (Genaera Corporation, priority 1996, dated 2003).

Experiment [1] relates to VEGF-stimulated bovine retinal endothelial cells. As to the kind of experiment: Growth of VEGF-stimulated endothelial cells. It counts as cell-based. The settings on record: Bos taurus, Endothelial cell, 48 hours, VEGF 20 ng/ml. The method, then:
In conducting this in vitro analysis, the following cell lines were tested: (a) bovine retinal endothelial cells; (b) 9L and C6 rat glioma cells; (c) human H80 glioma cells; and (d) VX2 rabbit carcinoma cells (the same type as the tumors implanted in the rabbit corneal micropocket assay test described above). The endothelial mitogen which was used in this analysis was VEGF at a concentration of 20 ng/ml.
The cells were allowed to attach overnight to tissue culture plates containing an optimized growth media. Following attachment, the cells were exposed to solvent only or 5 to increasing concentrations of squalamine (0, 10, 20, 30, 60, and 90 μg squalamine/ml). Cell growth was counted daily for three days using a Coulter Counter. A total of 10,000 cells per well were plated and each experimental concentration was tested in quadruplicate. The results were then averaged. The bovine retinal endothelial cells were grown and treated in an identical manner to the other cell lines, except that the growth of these cells was measured after the addition of 20 ng/ml of human recombinant VEGF to the cells prior to the squalamine treatment.
Percentage endothelial cell growth inhibition (%I) was determined by the following equation: [formula]

Experiment [2] deals with 9L gliosarcoma tumors (9L glioma). Description: 9L glioma flank study. Format: in vivo, Fisher 344 rats. Particulars: Day 25 or 26 after implantation, treatment from Day 5 per Table 4. On the procedure: Four groups of rats (twenty total Fisher 344 rats, 200 g) were given s.q. transplants of 1 mm3 9L gliosarcoma tumors (9L glioma) on Day 0. The tumors were implanted in the rat flanks to avoid complications relating to adequate brain levels of squalamine. Randomization and treatment began on Day 5 according to the following scheme:
On Day 25 or 26 after tumor implantation, the tumor size was measured directly. The tumor size (i.e., its volume “V”) was estimated based on volumetric calculations determined from the measured length (“L”), width (“W”), and height (“H”) of the tumor (Vtumor spheroid˜0.5 ×L×W×H). The tumor volumes shown in Table 5 represent the mean tumor volumes for each treatment group for those animals that survived to the end of the experiment.

For experiment [3], the system named is murine Lewis lung adenocarcinoma. As to the kind of experiment: Lung metastases of subcutaneous Lewis lung carcinoma. Particulars: day 20; squalamine 20 mg/kg/day s.c.; cyclophosphamide 125 mg/kg i.p. days 7, 9, 11; cisplatin 10 mg/kg i.p. day 7. Format: in vivo, C57BL/6 mice. The method, then: The murine Lewis lung adenocarcinoma was implanted subcutaneously in the hind-leg of male C57BL/6 mice and allowed to grow for one week. Groups of mice were then left untreated or treated with either squalamine (20 mg/kg/day, s.c.), cyclophosphamide (125 mg/kg, i.p. on days 7, 9 and 11), cisplatin (10 mg/kg, i.p. on day 7), the combination of squalamine and cyclophosphamide, or the combination of squalamine and cisplatin. On day 20, the animals were sacrificed, and the mean number of lung metastases were determined for each group.

The subject of another experiment is LNCaP cells. As to the kind of experiment: LNCaP xenograft post-orchiectomy (Example 6). The settings on record: 20 mg/kg/day for six to ten weeks from castration. Format: in vivo, athymic mice. From the text: LNCaP cells admixed with Matrigelm were implanted subcutaneously in 52 athymic mice. Those that developed measurable tumors and sufficient elevations in serum prostate specific antigen (“PSA”) (measured using a standard commercially available kit such as from Abbott Diagnostics (St. Louis, Mo.)) underwent orchiectomy. Subsequent to castration, these animals were distributed among the four groups (1-4) outlined below: and an additional control cohort of mice which were castrated but never treated with squalamine.
In the majority of animals, PSA levels fell to zero at time of castration. By three weeks they began to rebound and continued to rise steadily until the animals succumbed or were sacrificed. In these same mice, tumor size tended to plateau at time of orchiectomy, before beginning to increase in size correspondingly with PSA rebound. The serum PSA curve and tumor volume measurements from two members of this last control cohort are illustrated in FIG. 15a and b, respectively.
Ten mice began treatment with squalamine concomitant with the fall in PSA after castration (Group 1). Of these, three never experienced a post-orchiectomy PSA nadir, and one experienced an early death, of unknown etiology. Six animals, however, were treated with squalamine (at 20 mg/kg/day) for a range of six to ten weeks. […]

Another experiment concerns parental 2008 cell line. As to the kind of experiment: Human ovarian tumor 2008 xenograft with cisplatin. It counts as in vivo, female Swiss nude mice. Particulars: cisplatin single dose 4 mg/kg, squalamine 2 mg/kg, days 1-10. On the procedure: Human ovarian tumor cells were injected subcutaneously (5×10^7 cells per animal) in the mid-back region of female Swiss nude mice. The human ovarian tumors were either the parental 2008 cell line (cf. R. J. Pietras et al., Oncogene 9, 1829-1838 (1994)) or a transfected variant overexpressing the Her-2/neu receptor. The overexpression of the Her-2/neu receptor is considered to make the resulting xenograft tumors more angiogenic and less responsive to chemotherapy. After one week, animals were randomized to groups receiving no treatment (controls), a single dose of cisplatin (4 mg/kg), daily treatment with squalamine (2 mg/kg, days 1-10) or cisplatin plus squalamine. The growth of tumors was then scored on day 28 following initiation of chemotherapy. The results were very similar with the parental 2008 tumor and the transfected variant overexpressing the Her-2/neu receptor. […] In this xenograft model, the [day 28 mean treated tumor weight increase divided by the day 28 mean control tumor weight increase (T/C)] x 100% was subtracted from 100% to give the tumor growth inhibition (TGI) value for each group.
On the technique in general: In xenograft studies the graft and the host belong to different species.

A further experiment concerns the target NHE1 (Homo sapiens, UniProt P19634). As to the kind of experiment: NHE activity in PS 120 fibroblasts transfected with human NHE1. Format: cell-based. Set-up: expressed in transfected cells; host or cells: PS 120 NHE-deficient fibroblasts. Particulars: 7 μg/ml squalamine; acid loaded cells. The method, then:
The following describes the test used to determine that squalamine inhibits NHE3, but not NHE1 or NHE2. NHE deficient fibroblast cells (PS 120) transfected with an individual human NHE gene were loaded with a pH sensitive dye 2′7′-bis(2-carboxyethyl)-5,6-carboxyfluorescein (BCECF). NHE activity was measured by spectrofluorometric methods using this dye and by amiloride sensitive isotopic ^22Na^+cellular uptake. The cells were acidified by exposure to ammonium chloride in the absence of sodium to eliminate sodium and deactivate the proton pumps. The ammonium chloride was washed out by exposing the cells to tetramethyl ammonium chloride in bicarbonate free medium. […] Sodium then was added back at various concentrations (see the abscissa of FIGS. 5a and 5b) to drive the antiporters (human NHE3 in FIG. 5a and human NHE1 in FIG. 5b). The antiporters were driven at different rates, as evidenced by the cellular pH change rate, depending on the amount of sodium added.

Sequence of NHE1 (P19634 whole entry): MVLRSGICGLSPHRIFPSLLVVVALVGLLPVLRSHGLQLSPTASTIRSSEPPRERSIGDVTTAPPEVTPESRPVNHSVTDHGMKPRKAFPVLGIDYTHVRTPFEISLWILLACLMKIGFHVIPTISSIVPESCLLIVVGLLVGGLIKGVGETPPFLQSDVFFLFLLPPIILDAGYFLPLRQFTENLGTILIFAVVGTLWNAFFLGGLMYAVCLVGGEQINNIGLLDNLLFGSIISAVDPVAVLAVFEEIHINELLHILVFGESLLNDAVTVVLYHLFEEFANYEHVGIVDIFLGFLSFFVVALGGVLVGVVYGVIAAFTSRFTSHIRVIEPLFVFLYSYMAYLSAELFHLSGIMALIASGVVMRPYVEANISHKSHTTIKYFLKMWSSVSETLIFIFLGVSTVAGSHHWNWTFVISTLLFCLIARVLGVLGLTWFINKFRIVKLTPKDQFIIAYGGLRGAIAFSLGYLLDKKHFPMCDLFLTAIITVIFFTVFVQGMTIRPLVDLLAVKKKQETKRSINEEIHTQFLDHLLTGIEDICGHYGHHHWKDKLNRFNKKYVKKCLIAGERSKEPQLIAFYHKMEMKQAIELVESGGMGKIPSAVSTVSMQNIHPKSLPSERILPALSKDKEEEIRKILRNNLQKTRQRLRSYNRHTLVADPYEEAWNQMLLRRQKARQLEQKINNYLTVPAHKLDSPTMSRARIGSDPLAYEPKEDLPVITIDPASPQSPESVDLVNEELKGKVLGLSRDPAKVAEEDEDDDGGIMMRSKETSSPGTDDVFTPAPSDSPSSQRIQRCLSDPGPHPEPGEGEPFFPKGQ

For orientation: inhibition means the change of the read-out against control, counted positive when it falls. A lower inhibition goes with a response near the control. In experiment [1] (10 μg/ml), `CC(C)[C@@H](CC[C@@H](C)[C@H]1CC[C@H]2[C@@H]3[C@H](O)C[C@H]4C[C@@H](NCCCNCCCCN)CC[C@]4(C)[C@H]3CC[C@]12C)OS(=O)(=O)O` [Squalamine, squalamine] displayed an inhibition at 10 µg/mL of 38%. In experiment [1] (20 μg/ml), this compound displayed an inhibition at 20 µg/mL of 57%. Also, the inhibition at 30 µg/mL in experiment [1] (30 μg/ml) was determined as 83%. Also, the “% Reduction (based on control volume)” value in experiment [2] and in experiment [2] (listed as squalamine) was 81.7% throughout. Moreover, in experiment [2], the “Mean Tumor volume” value was 3,347 mm^3. In addition, the “mean number of lung metastases” value in experiment [3] is given as “reduced the number of metastases”. Also, the tumor masses result in the experiment on LNCaP cells is recorded as “tended to diminish and, eventually, disappear”. For the same compound, the “Day 28 Mean Tumor Size” value in the experiment with parental 2008 cell line was 2254 mm^3. The “Tumor Growth Inhibition (TGI) Index” value with parental 2008 cell line (day 28) came out at 41%. Also, the “effect on human NHE1 antiporter (pH change rate)” value at NHE1 is on record as “no effective difference in the pH change rate”.
